Like-named read-outs stand apart in the source and are kept apart here. One block for each compound: values may come before it.
What was measured:
A549 cells = assay: Cell viability assay (CellTiter-Blue); type: cell-based, human; conditions: up to 5 μM, 72 h incubation
Protocol: 5 × 10^3 A549 cells were seeded into 96-well plates. The following day, the indicated final concentrations of JYQ-164 and JYQ-173 were added to the cells, and DMSO was used as a control. Inhibitors were renewed at 36 h, and cells were incubated with them an additional 36 h. Cell viability was measured using the CellTiter-Blue viability assay (Promega). Relative survival was normalized to the DMSO-treated sample and corrected for background signal. page 8: Figure S6. Cytotoxicity assay for JYQ-164 and JYQ-173 in A549 cells. ( A) PARK7 engagement of JYQ -164 and JYQ-173 in A459 cells. A549 cells were incubated with […] The reactions were stopped by addition of NuPAGE™ LDS sample buffer (4x) , followed by cell lysis, SDS-PAGE, fluorescence scanning, and immunoblott in g against PARK7 and β-actin. β-actin was used as a loading control. (B) A549 cells were incubated with indicated concentration of JYQ-164 (left panel) or JYQ-173 (right panel) for 72 h where the inhibitors were renewed after 36 h. Cell viability was measured using the CellTiter-Blue assay. Relative viability was normalized to untreated control and corrected for background signal. S8 (1 picture or pasted object on this page, not shown here)

[1] = molecular target: T1, reactive cysteine sites of other proteins in A549 cells (Homo sapiens, UniProt O60664); conditions: 4 h, O60664_C39 Perilipin-3
T1 sequence (O60664 1-434): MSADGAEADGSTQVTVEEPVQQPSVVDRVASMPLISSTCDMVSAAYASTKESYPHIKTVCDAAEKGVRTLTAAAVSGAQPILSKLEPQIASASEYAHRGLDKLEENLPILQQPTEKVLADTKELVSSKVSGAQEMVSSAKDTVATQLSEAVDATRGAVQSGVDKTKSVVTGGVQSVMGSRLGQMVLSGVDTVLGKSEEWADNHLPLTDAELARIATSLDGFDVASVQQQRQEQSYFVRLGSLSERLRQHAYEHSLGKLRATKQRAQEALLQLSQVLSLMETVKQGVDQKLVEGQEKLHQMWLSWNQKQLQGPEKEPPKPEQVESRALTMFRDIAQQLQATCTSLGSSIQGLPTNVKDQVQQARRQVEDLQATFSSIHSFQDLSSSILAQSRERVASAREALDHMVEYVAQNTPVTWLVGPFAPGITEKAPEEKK
Source text: (§1) Further, the samples were digested with tosylsulfonyl phenylalanyl chloromethyl ketone (TPCK)-treated trypsin and endoGluC to increase the coverage of protein sequences, especially the PARK7 peptide containing Cys106 residue. Peptides generated by digestion from replicates of each sample were labeled using TMT16-plex to perform tandem mass tag (TMT)-based quantitative proteomics profiling. Following the TMT labeling, all samples were pooled and the peptides conjugated to the DBIA probe were enriched by streptavidin beads and analyzed by LC-MS/MS (Figure 3A). […] All cysteines were represented with the shortest peptide by using the average CR values of all the peptides with the same modified cysteine from the same protein in the same condition.[16],[27],[28]
(§2) A549 cells were seeded into 10 cm plates in 10 mL of media. […] The cells were then washed two times with cold PBS (1 mL per 10 cm plate) and collected by scraping them with a cell scraper. Cells were lysed by sonication in ice-cold PBS and centrifuged at 15,000 rpm for 2 min to remove cell debris. The BCA Gold protein assay (Thermo Fisher Scientific) was performed to determine protein concentration. Each sample (100 μg) was labeled with 500 μM DBIA probe for 1 h in the dark at room temperature (RT). Excess DBIA and disulfide bonds were quenched and reduced, respectively, using 5 mM dithiothreitol (DTT) for 30 min in the dark at RT. Reduced disulfide bonds were alkylated using 20 mM iodoacetamide for 30 min in the dark at RT. […] Digested peptides were labeled with TMTpro16-plex reagents (Thermo Fisher Scientific) in a 1:4 ratio by mass (peptides/TMT reagents) for 1 h at RT. Excess TMT reagent was quenched with 5 μL 6% hydroxylamine for 15 min at RT. All samples were then pooled and lyophilized.
(§3) Nonspecific binding peptides were washed away using the following procedure: 3 × 1 mL of PBS pH 7.4, 2 × 1 mL of PBS with 0.1% SDS pH 7.4, and 3 × 1 mL of HPLC-grade water. DBIA probe-containing peptides were eluted using 700 μL of 50% acetonitrile in 0.1% TFA, lyophilized using a Speedvac, and desalted using a handmade mini-SPE column (10% sorbent material of a Waters, OASIS 1 cm^3 HLB 30 mg cartridge). Column was equilibrated with 200 μL of 90% acetonitrile and 3 × 200 μL of 10 mM NH4HCO3 pH 8.4. The dried sample was dissolved in 200 μL of 10 mM NH4HCO3 pH 8.4, loaded onto the column, washed 3x with 200 μL of 10 mM NH4HCO3 pH 8.4, and eluted into 3 fractions with 150 μL of 10, 20, and 50% acetonitrile (in 10 mM NH4HCO3). Samples were then lyophilized.
(§4) 2.2.04 (www.matrixscience.com) for protein identification. Mascot searches were done with 10 ppm and 0.02 Da deviation for the precursor and fragment mass, respectively, and the enzymes trypsin and EndoGluC was specified, up to three missed cleavages were allowed. Methionine oxidation, acetyl (protein N-term), and DBIA on Cys were set as a variable modification. Carbamidomethyl on Cys and TMTpro on Lys and N-term were set as a fixed modification. Peptides with an FDR <1% were accepted. Peptides were only retained, if they were quantified and if there was exactly one DBIA modification on the peptide. The values for each TMT channel were normalized to the average of the values for the DMSO samples for the same peptide, and these values were named CR. For each peptide, the first entry of the Master Protein Accessions column was chosen as the Master Protein Accession, and the residue number of the cysteine modified by DBIA within the entire protein sequence was determined. Using this information, each peptide was assigned an identifier consisting of the Master Protein Accession and the residue number of the modified cysteine to assign each peptide to the respective modified cysteine residue. Within each replicate, CR values for all peptides with the same identifier (and thus the same modified cysteine residue) were combined by averaging and only the shortest Annotated Sequence was kept as the final Annotated Sequence.

[2] = molecular target: reactive cysteine sites of other proteins in A549 cells (Homo sapiens, UniProt P04080); conditions: 4 h, P04080_C3 Cystatin-B
Sequence of reactive cysteine sites of other proteins in A549 cells (Homo sapiens, UniProt P04080) (P04080 whole entry): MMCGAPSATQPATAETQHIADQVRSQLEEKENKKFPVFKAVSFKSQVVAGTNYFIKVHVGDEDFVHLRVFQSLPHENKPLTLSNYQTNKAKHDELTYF
Source text: as §1, §2, §3, §4

[3] = molecular target: reactive cysteine sites of other proteins in A549 cells (Homo sapiens, UniProt P40222); conditions: 4 h, P40222_C87 Alpha-taxilin
Sequence of reactive cysteine sites of other proteins in A549 cells (Homo sapiens, UniProt P40222) (P40222 whole entry): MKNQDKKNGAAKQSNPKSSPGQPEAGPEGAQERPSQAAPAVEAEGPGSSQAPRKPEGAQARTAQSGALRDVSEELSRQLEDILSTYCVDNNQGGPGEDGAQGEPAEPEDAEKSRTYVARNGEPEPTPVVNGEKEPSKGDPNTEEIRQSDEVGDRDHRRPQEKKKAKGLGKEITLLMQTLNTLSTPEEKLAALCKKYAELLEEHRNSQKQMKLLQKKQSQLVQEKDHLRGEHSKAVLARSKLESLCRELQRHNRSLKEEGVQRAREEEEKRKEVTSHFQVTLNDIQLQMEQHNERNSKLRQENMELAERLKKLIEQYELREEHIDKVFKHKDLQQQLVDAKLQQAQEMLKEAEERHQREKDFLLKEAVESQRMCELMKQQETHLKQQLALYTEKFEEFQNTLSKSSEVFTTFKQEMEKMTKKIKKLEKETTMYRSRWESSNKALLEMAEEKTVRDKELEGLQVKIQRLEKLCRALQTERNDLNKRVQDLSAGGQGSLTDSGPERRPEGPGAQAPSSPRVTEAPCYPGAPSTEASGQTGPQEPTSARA
Source text: as §1, §2, §3, §4

[4] = molecular target: reactive cysteine sites of other proteins in A549 cells (Homo sapiens, UniProt Q13085); conditions: 4 h, Q13085_C1297 Acetyl-CoA carboxylase 1
Source text: as §1, §2, §3, §4

[5] = test system: other proteins of A549 cells; assay: TMT-based global proteomic profiling in A549 cells, other proteins; type: cell-based, Homo sapiens; conditions: 8 h; for Abundance Ratio: (compound) / (1 DMSO) / Abundance Ratio: log2 (compound) / (1 DMSO): A549, 5 μM
Protocol: (§5) A549 cells were seeded into 10 cm plates in 10 mL of media. […] Cells were lysed using a 5% SDS lysis buffer (100 mM Tris-HCl, pH 7.6) and were incubated at 95 °C for 4 min. Protein determination was performed using the Pierce BCA Gold protein assay. 100 μg of protein of each sample was reduced and alkylated, and excess iodoacetamide was quenched using 5 mM TCEP, 15 mM iodoacetamide, and 10 mM DTT, respectively. The protein was pelleted down using chloroform/methanol precipitation, and the resulting pellets were resolubilized in 40 mM HEPES pH 8.4. […] The Pierce BCA Gold protein assay was used to determine the peptide concentration. The peptides were labeled with TMTpro Label Reagents in a 1:4 ratio by mass (peptides/TMT reagents) for 1 h at RT. Five μL of 6% hydroxylamine was added to quench excess TMT reagent and incubated for 15 min at RT. Samples were pooled and lyophilized. The sample was subsequently fractionated on an Agilent 1200 series HPLC system (Agilent Technologies). 75 μg of the pooled sample was dissolved in solvent A (10 mM NH4HCO3, pH 8.4), injected onto, and eluted from an Agilent Eclipse Plus C18 2.1 × 150 mm 3.5 μm column (Agilent Technologies). The gradient was run from 2 to 90% solvent B (10 mM NH4HCO3, pH 8.4 final concentration, 20/80 water/acetonitrile v/v) in 30 min at a flow rate of 200 μL/min. Twelve fractions were made; every 30 s a fraction was collected in a vial, and the eluate of the next 30 s was collected in the next vial and so on until it loops back to the first vial (5 loops of 6 min each). Afterward, the samples were lyophilized.
2.2.07 (www.matrixscience.com) for protein identification. Mascot searches were with 10 ppm and 0.02 Da deviation for precursor and fragment mass, respectively. Enzyme specificity was set to trypsin. Up to two missed cleavages were allowed. Methionine oxidation and acetyl on protein N-terminus were set as variable modifications. Carbamidomethyl on Cys and TMTpro on Lys and N-terminus were set as fixed modifications. Protein FDR of 1% was set. Normalization was on total peptide amount. The values for each TMT channel were normalized to the average of the values for the DMSO samples for the same peptide, and these values were named FC. The log2 FC values of all replicates for the same master protein were averaged to give the “Average log2 FC”. A one-sample t test was performed against the null hypothesis of log2 FC = 0, and the resulting −log10p values were reported for each protein. The volcano plot was plotted using GraphPad Prism v.9.01.

PARK7 [6] = molecular target: T2, PARK7 (Homo sapiens, UniProt Q99497); assay: Activity evaluation of PROTACs in cells (PARK7 degradation, immunoblot); set-up: Dmax: dose or concentration left out as unconfirmed
T2 sequence (Q99497 1-189): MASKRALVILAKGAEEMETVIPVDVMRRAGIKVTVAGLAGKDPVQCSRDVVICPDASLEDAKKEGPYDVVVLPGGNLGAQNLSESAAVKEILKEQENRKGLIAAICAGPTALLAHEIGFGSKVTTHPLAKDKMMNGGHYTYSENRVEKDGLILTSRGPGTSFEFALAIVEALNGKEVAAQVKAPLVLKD
Protocol: A549 cells were seeded into 6-well plates. The next day after seeding, cells were incubated with the indicated concentrations of indicated PROTACs for 8 h. The cells were then washed with PBS and collected. The collected cell pellets were lysed with Tris-triton buffer as described above. The prepared cell lysate of each sample (10 μL) was added 5 μL 3× LDS + 5% β-mercaptoethanol, and boiled for 10 min.

PARK7 [7] = molecular target: T2, PARK7; assay: TMT-based global proteomic profiling in A549 cells, PARK7; type: cell-based; set-up: incubating A549 cells with 5 μM JYQ-194 for 8 h, along with 5 μM JYQ-173 and DMSO as a control; endogenous in cells; host or cells: A549; conditions: 5 μM, 8 h
Protocol: as §5, with “Twelve fractions were made; every 30 s a fraction was collected in a vial, and the eluate of the next 30 s was collected in the next vial and so on until it loops back to the first vial (5 loops of 6 min each). Afterward, the samples were lyophilized.” left out

SMILES: N#CN1CC[C@@H](C(=O)Nc2nc3c(s2)CN(C(=O)c2cccc(S(=O)(=O)N4CCOCC4)c2)CC3)C1 [Compound 340, (R)-1-Cyano-N-(5-(3-(morpholinosulfonyl)benzoyl)-4,5,6,7-tetrahydrothiazolo[5,4-c]pyridin-2-yl)pyrrolidine-3-carboxamide]
cytotoxicity (A549 cells): did not show any cytotoxicity
Average log2 CR (DMSO/inhibitor) ([1]; A549, 0.5 µM): 0.5943
Average log2 CR (DMSO/inhibitor) ([1]; A549, 5 µM): 0.5954
Average log2 CR (DMSO/inhibitor) ([2]; A549, 0.5 µM): 1.056
Average log2 CR (DMSO/inhibitor) ([2]; A549, 5 µM): 0.758
Average log2 CR (DMSO/inhibitor) ([3]; A549, 0.5 µM): 0.6134
Average log2 CR (DMSO/inhibitor) ([3]; A549, 5 µM): 0.7033
Average log2 CR (DMSO/inhibitor) ([4]; A549, 0.5 µM): 0.8087
Average log2 CR (DMSO/inhibitor) ([4]; A549, 5 µM): 0.7839

Dmax (PARK7 [6]; A549): ~80%
time from which PARK7 degradation is observed (PARK7 [6]; A549 cells, 5 μM): 4 h
time by which maximal PARK7 degradation is reached (PARK7 [6]; A549 cells, 5 μM, remained until 24 h): 8 h
concentration at which PARK7 degradation starts (PARK7 [6]; A549 cells, 0.1 to 5 μM, 8 h): 0.1 µM
PARK7 protein level (total proteome profiling) (PARK7 [7]): induced the degradation of PARK7
SMILES: N#CN1CC[C@@H](C(=O)Nc2nc3c(s2)CN(C(=O)c2cc(-n4cc(COCCOCCNc5cccc6c5C(=O)N(C5CCC(=O)NC5=O)C6=O)nn4)ccc2F)CC3)C1 (stereo partly shown) [JYQ-194]
Abundance Ratio: (compound) / (1 DMSO) ([5]; ESYT2 (A0FGR8)): 1.074
Abundance Ratio: log2 (compound) / (1 DMSO) ([5]; ESYT2 (A0FGR8)): 0.1157
Abundance Ratio: (compound) / (1 DMSO) ([5]; RBM47 (A0AV96)): 1.045
Abundance Ratio: log2 (compound) / (1 DMSO) ([5]; RBM47 (A0AV96)): 0.07722
Abundance Ratio: (compound) / (1 DMSO) ([5]; SMIM26 (A0A096LP01)): 1.081
Abundance Ratio: log2 (compound) / (1 DMSO) ([5]; SMIM26 (A0A096LP01)): 0.1302
Abundance Ratio: (compound) / (1 DMSO) ([5]; TTC26 (A0AVF1)): 0.975
Abundance Ratio: log2 (compound) / (1 DMSO) ([5]; TTC26 (A0AVF1)): -0.08647
Abundance Ratio: (compound) / (1 DMSO) ([5]; UBA6 (A0AVT1)): 0.964
Abundance Ratio: log2 (compound) / (1 DMSO) ([5]; UBA6 (A0AVT1)): -0.04606
DOP1B protein level (total proteome profiling) ([5]; A549 cells, 5 μM): decreased
HINT2 protein level (total proteome profiling) ([5]; A549 cells, 5 μM): partly decreased
TM7SF3 protein level (total proteome profiling) ([5]; A549 cells, 5 μM): decreased
PARK7 degradation in other tumor cell lines (PARK7 [6]; Hela, H1299, and MCF7 cells, 8 h): PARK7 degradation was observed in all these cells in a dose-dependent manner

Source: article PMC11129182, “Development of Inhibitors, Probes, and PROTAC Provides a Complete Toolbox to Study PARK7 in the Living Cell” (Journal of Medicinal Chemistry, 2024)
